Reference: patent publication US20090311217A1, “3-SUBSTITUTED-1H-INDOLE COMPOUNDS, THEIR USE AS MTOR KINASE AND PI3 KINASE INHIBITORS, AND THEIR SYNTHESES” (priority 2008, published 2009)

Molecular target: PI3K-alpha (Homo sapiens, UniProt P42336)
Assay: PI3K-alpha fluorescence polarization assay
Assay type: biochemical
Settings: read-out: PI3Kα Avg. IC50

Sequence of PI3K-alpha (P42336 whole entry, species assumed): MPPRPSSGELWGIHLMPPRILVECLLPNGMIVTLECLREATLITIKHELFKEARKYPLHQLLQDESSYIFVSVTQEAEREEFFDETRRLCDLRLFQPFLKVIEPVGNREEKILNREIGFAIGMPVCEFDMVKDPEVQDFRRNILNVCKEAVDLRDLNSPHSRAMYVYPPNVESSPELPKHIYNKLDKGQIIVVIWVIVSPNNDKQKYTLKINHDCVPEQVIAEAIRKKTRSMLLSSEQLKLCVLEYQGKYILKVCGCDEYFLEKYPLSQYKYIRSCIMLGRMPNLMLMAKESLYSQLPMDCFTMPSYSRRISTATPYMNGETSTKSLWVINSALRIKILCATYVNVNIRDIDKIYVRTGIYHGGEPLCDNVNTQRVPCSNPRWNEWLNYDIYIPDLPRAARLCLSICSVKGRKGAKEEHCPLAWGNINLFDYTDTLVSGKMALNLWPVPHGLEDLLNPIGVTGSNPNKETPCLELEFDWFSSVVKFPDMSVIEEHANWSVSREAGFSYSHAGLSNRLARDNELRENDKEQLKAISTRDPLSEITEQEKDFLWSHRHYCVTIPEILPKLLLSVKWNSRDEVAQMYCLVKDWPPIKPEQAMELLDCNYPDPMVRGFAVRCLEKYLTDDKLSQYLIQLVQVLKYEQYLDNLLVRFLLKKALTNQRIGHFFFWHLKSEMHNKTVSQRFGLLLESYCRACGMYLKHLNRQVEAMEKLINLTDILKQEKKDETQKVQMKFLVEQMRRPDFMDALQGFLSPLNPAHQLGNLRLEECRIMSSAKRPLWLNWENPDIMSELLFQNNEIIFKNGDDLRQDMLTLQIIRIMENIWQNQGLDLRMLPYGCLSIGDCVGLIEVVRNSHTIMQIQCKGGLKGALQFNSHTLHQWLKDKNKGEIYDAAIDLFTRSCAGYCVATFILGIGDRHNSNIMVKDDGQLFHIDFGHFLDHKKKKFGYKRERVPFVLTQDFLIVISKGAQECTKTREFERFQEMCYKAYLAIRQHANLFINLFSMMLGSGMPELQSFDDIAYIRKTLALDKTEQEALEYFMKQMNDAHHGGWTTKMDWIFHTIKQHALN
Sequence of PI3K-alpha (P27986 whole entry partner, species assumed): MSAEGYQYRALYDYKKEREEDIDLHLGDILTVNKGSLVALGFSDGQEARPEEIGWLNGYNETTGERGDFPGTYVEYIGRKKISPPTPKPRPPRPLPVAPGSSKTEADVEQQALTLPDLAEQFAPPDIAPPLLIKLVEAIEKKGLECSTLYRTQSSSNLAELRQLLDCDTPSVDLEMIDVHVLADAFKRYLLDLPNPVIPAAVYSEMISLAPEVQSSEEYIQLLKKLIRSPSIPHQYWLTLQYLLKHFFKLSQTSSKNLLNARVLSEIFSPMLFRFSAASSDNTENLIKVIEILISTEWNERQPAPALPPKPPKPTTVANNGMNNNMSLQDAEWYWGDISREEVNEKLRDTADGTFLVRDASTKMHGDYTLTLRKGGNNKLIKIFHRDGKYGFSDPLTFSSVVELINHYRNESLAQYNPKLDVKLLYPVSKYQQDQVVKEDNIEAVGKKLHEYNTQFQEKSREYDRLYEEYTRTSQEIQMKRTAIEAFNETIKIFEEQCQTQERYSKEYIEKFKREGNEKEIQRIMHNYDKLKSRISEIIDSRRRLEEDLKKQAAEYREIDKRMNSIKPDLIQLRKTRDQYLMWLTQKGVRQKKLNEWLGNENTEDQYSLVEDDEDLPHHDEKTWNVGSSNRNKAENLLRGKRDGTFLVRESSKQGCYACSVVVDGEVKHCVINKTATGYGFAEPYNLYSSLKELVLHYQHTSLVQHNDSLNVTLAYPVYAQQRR

`Cc1[nH]c2ccccc2c1/C=C1\Oc2ccccc2C1=O` [Example 21, (2Z)-2-[(2-methyl-1H-indol-3-yl)methylene]-1-benzofuran-3(2H)-one] and `Cc1[nH]c2ccccc2c1/C=C1\Oc2cc(O)ccc2C1=O` [Example 30, (2Z)-6-hydroxy-2-[(2-methyl-1H-indol-3-yl)methylene]-1-benzofuran-3(2H)-one] cannot be ordered by IC50: greater than 10 µM for the first, 12.8 µM for the second.

Going from `Cc1ccc2c(/C=C3\Oc4ccccc4C3=O)c[nH]c2c1` [Example 22, (2Z)-2-[(6-methyl-1H-indol-3-yl)methylene]-1-benzofuran-3(2H)-one] to `Cc1ccc2c(/C=C3\Oc4cc(O)ccc4C3=O)c[nH]c2c1` [Example 31, (2Z)-6-hydroxy-2-[(6-methyl-1H-indol-3-yl)methylene]-1-benzofuran-3(2H)-one], the IC50 falls from greater than 10 µM to 9.6 µM. The second is the more potent here.

Compared with `Cc1cccc2c(/C=C3\Oc4ccccc4C3=O)c[nH]c12` [Example 23, (2Z)-2-[(7-methyl-1H-indol-3-yl)methylene]-1-benzofuran-3(2H)-one], `Cc1cccc2c(/C=C3\Sc4ccccc4C3=O)c[nH]c12` [Example 280, (2Z)-2-[(7-methyl-1H-indol-3-yl)methylene]-1-benzothiophen-3(2H)-one] is lower in IC50: greater than 10 µM for the first, 4.56 µM for the second.

Compared with `O=C1/C(=C/c2c[nH]c3ccc(Br)cc23)Oc2ccccc21` [Example 24, (2Z)-2-[(5-bromo-1H-indol-3-yl)methylene]-1-benzofuran-3(2H)-one], `O=C1/C(=C/c2c[nH]c3ccc(Br)cc23)Oc2cc(O)ccc21` [Example 32, (2Z)-2-[(5-bromo-1H-indol-3-yl)methylene]-6-hydroxy-1-benzofuran-3(2H)-one] is lower in IC50: greater than 10 µM for the first, 6.47 µM for the second.

`O=C1/C(=C/c2cn(Cc3ccccc3)c3ccccc23)Oc2ccccc21` [Example 25, (2Z)-2-[(1-benzyl-1H-indol-3-yl)methylene]-1-benzofuran-3(2H)-one] and `O=C1/C(=C/c2cn(Cc3ccccc3)c3ccccc23)Oc2cc(O)ccc21` [Example 33, (2Z)-2-[(1-benzyl-1H-indol-3-yl)methylene]-6-hydroxy-1-benzofuran-3(2H)-one] cannot be ordered by IC50: greater than 10 µM for the first, greater than 10 µM for the second.

Compared with `O=C1/C(=C/c2c(-c3ccc(Cl)cc3)[nH]c3ccccc23)Oc2cc(O)ccc21` [Example 26, (2Z)-2-{[2-(4-chlorophenyl)-1H-indol-3-yl]methylene}-6-hydroxy-1-benzofuran-3(2H)-one], `O=C1/C(=C/c2c(-c3ccc(F)cc3)[nH]c3ccccc23)Oc2cc(O)ccc21` [Example 28, (2Z)-2-{[2-(4-fluorophenyl)-1H-indol-3-yl]methylene}-6-hydroxy-1-benzofuran-3(2H)-one] is 1.6-fold lower in IC50: 3.81 µM for the first, 2.43 µM for the second.

Compared with `O=C1/C(=C/c2c(-c3ccc4ccccc4c3)[nH]c3ccccc23)Oc2cc(O)ccc21` [Example 27, (2Z)-6-hydroxy-2-{[2-(2-naphthyl)-1H-indol-3-yl]methylene}-1-benzofuran-3(2H)-one], `COc1cccc2c1O/C(=C\c1c(-c3ccc4ccccc4c3)[nH]c3ccccc13)C2=O` [Example 36, (2Z)-7-methoxy-2-{[2-(2-naphthyl)-1H-indol-3-yl]methylene}-1-benzofuran-3(2H)-one] is higher in IC50: 5.47 µM for the first, greater than 10 µM for the second. The first is the more potent here.

`Cc1[nH]c2ccc([N+](=O)[O-])cc2c1/C=C1\Oc2cc(O)ccc2C1=O` [Example 29, (2Z)-6-hydroxy-2-[(2-methyl-5-nitro-1H-indol-3-yl)methylene]-1-benzofuran-3(2H)-one] and `COc1cccc2c1O/C(=C\c1c(C)[nH]c3ccc([N+](=O)[O-])cc13)C2=O` [Example 38, (2Z)-7-methoxy-2-[(2-methyl-5-nitro-1H-indol-3-yl)methylene]-1-benzofuran-3(2H)-one] cannot be ordered by IC50: greater than 10 µM for the first, greater than 10 µM for the second.

`COc1cccc2c1O/C(=C\c1c(-c3ccc(Cl)cc3)[nH]c3ccccc13)C2=O` [Example 35, (2Z)-2-{[2-(4-chlorophenyl)-1H-indol-3-yl]methylene}-7-methoxy-1-benzofuran-3(2H)-one] and `COc1cccc2c1O/C(=C\c1c(-c3ccc(F)cc3)[nH]c3ccccc13)C2=O` [Example 37, (2Z)-2-{[2-(4-fluorophenyl)-1H-indol-3-yl]methylene}-7-methoxy-1-benzofuran-3(2H)-one] are within 1.5-fold of each other in IC50: 1.94 µM for the first, 2.35 µM for the second.

`COc1cccc2c1O/C(=C\c1c(C)[nH]c3ccccc13)C2=O` [Example 39, (2Z)-7-methoxy-2-[(2-methyl-1H-indol-3-yl)methylene]-1-benzofuran-3(2H)-one] and `COc1cccc2c1O/C(=C\c1c[nH]c3cc(C)ccc13)C2=O` [Example 40, (2Z)-7-methoxy-2-[(6-methyl-1H-indol-3-yl)methylene]-1-benzofuran-3(2H)-one] cannot be ordered by IC50: greater than 10 µM for the first, greater than 10 µM for the second.

Going from `COc1cccc2c1O/C(=C\c1cn(Cc3ccccc3)c3ccccc13)C2=O` [Example 42, (2Z)-2-[(1-benzyl-1H-indol-3-yl)methylene]-7-methoxy-1-benzofuran-3(2H)-one] to `O=C1/C(=C/c2cn(Cc3ccccc3)c3ccccc23)Sc2ccccc21` [Example 282, (2Z)-2-[(1-benzyl-1H-indol-3-yl)methylene]-1-benzothiophen-3(2H)-one], the IC50 falls from greater than 10 µM to 1.42 µM.

`COc1cccc2c1O/C(=C\c1c[nH]c3ccc(OCc4ccccc4)cc13)C2=O` [Example 43, (2Z)-2-{[5-(benzyloxy)-1H-indol-3-yl]methylene}-7-methoxy-1-benzofuran-3(2H)-one] and `O=C1/C(=C/c2c[nH]c3ccc(OCc4ccccc4)cc23)Sc2ccc(Cl)cc21` [Example 288, (2Z)-2-{[5-(benzyloxy)-1H-indol-3-yl]methylene}-5-chloro-1-benzothiophen-3(2H)-one] cannot be ordered by IC50: greater than 10 µM for the first, greater than 10 µM for the second.

First: Cn1cc(/C=C2\Oc3c(ccc(O)c3O)C2=O)c2ccccc21 [Example 57, (2Z)-6,7-dihydroxy-2-[(1-methyl-1H-indol-3-yl)methylene]-1-benzofuran-3(2H)-one]
Second: COc1ccc2c(c1)c(C=C1Oc3c(ccc(O)c3O)C1=O)cn2C [Example 85, 6,7-dihydroxy-2-[(5-methoxy-1-methyl-1H-indol-3-yl)methylene]-1-benzofuran-3(2H)-one]
The IC50 of the first is 3.9-fold higher: 4.5 µM for the first, 1.15 µM for the second.

First: O=C1/C(=C/c2c[nH]c3ccc(F)cc23)Oc2c1ccc(O)c2O [Example 64, (2Z)-2-[(5-fluoro-1H-indol-3-yl)methylene]-6,7-dihydroxy-1-benzofuran-3(2H)-one]
Second: Cc1c(C=C2Oc3cc(O)cc(O)c3C2=O)c2cc(F)ccc2n1C [Example 235, 2-[(5-fluoro-1,2-dimethyl-1H-indol-3-yl)methylene]-4,6-dihydroxy-1-benzofuran-3(2H)-one]
The IC50 of the first is 2.3-fold lower: 1.72 µM for the first, 4.03 µM for the second.

Going from `COc1ccc2[nH]c(-c3ccccc3)c(C=C3Oc4cccc(O)c4C3=O)c2c1` [Example 79, 4-hydroxy-2-[(5-methoxy-2-phenyl-1H-indol-3-yl)methylene]-1-benzofuran-3(2H)-one] to `O=C1/C(=C/c2c(-c3ccccc3)[nH]c3ccccc23)Sc2ccc(Cl)cc21` [Example 283, (2Z)-5-chloro-2-[(2-phenyl-1H-indol-3-yl)methylene]-1-benzothiophen-3(2H)-one], the IC50 rises from 1.65 µM to greater than 10 µM.

Compared with `COc1ccc2c(c1)c(C=C1Oc3c(ccc(O)c3O)C1=O)c(C)n2CCCCN1CCN(C)CC1` [Example 144, 6,7-dihydroxy-2-({5-methoxy-2-methyl-1-[4-(4-methylpiperazin-1-yl)butyl]-1H-indol-3-yl}methylene)-1-benzofuran-3(2H)-one], `COc1ccc2c(c1)c(C=C1Oc3c(ccc(O)c3O)C1=O)c(C)n2CCCCN1CCN(CCO)CC1` [Example 146, 6,7-dihydroxy-2-[(1-{4-[4-(2-hydroxyethyl)piperazin-1-yl]butyl}-5-methoxy-2-methyl-1H-indol-3-yl)methylene]-1-benzofuran-3(2H)-one] is 1.9-fold lower in IC50: 1.6 µM for the first, 0.85 µM for the second.

Compared with `COc1ccc2c(c1)c(C=C1Oc3c(ccc(O)c3O)C1=O)c(C)n2CCCCN1CCOCC1` [Example 145, 6,7-dihydroxy-2-{[5-methoxy-2-methyl-1-(4-morpholin-4-ylbutyl)-1H-indol-3-yl]methylene}-1-benzofuran-3(2H)-one], `Cc1[nH]c2ccccc2c1/C=C1\Sc2ccccc2C1=O` [Example 272, (2Z)-2-[(2-methyl-1H-indol-3-yl)methylene]-1-benzothiophen-3(2H)-one] is 1.6-fold higher in IC50: 0.825 µM for the first, 1.32 µM for the second. The first is the more potent here.

First: O=C1/C(=C/c2c[nH]c3ccccc23)Sc2ccccc21 [Example 273, (2Z)-2-(1H-indol-3-ylmethylene)-1-benzothiophen-3(2H)-one]
Second: Cc1ccc2c(/C=C3\Sc4ccccc4C3=O)c[nH]c2c1 [Example 279, (2Z)-2-[(6-methyl-1H-indol-3-yl)methylene]-1-benzothiophen-3(2H)-one]
The IC50 of the first is lower: 9.62 µM for the first, greater than 10 µM for the second. The first is the more potent here.

`Cn1c(-c2ccccc2)c(/C=C2\Sc3ccccc3C2=O)c2ccccc21` [Example 275, (2Z)-2-[(1-methyl-2-phenyl-1H-indol-3-yl)methylene]-1-benzothiophen-3(2H)-one] and `Cn1cc(/C=C2\Sc3ccccc3C2=O)c2ccccc21` [Example 278, (2Z)-2-[(1-methyl-1H-indol-3-yl)methylene]-1-benzothiophen-3(2H)-one] are within 1.5-fold of each other in IC50: 2.8 µM for the first, 3.1 µM for the second.

`O=C1/C(=C/c2c(-c3ccc4ccccc4c3)[nH]c3ccccc23)Sc2ccccc21` [Example 276, (2Z)-2-{[2-(2-naphthyl)-1H-indol-3-yl]methylene}-1-benzothiophen-3(2H)-one] and `O=C1/C(=C/c2c(-c3ccc(Cl)cc3)[nH]c3ccccc23)Sc2ccc(Cl)cc21` [Example 284, (2Z)-5-chloro-2-{[2-(4-chlorophenyl)-1H-indol-3-yl]methylene}-1-benzothiophen-3(2H)-one] cannot be ordered by IC50: greater than 10 µM for the first, greater than 10 µM for the second.

`O=C1/C(=C/c2c[nH]c3ccccc23)Sc2ccc(Cl)cc21` [Example 281, (2Z)-5-chloro-2-(1H-indol-3-ylmethylene)-1-benzothiophen-3(2H)-one] and `O=C1/C(=C/c2c(-c3ccc(F)cc3)[nH]c3ccccc23)Sc2ccc(Cl)cc21` [Example 286, (2Z)-5-chloro-2-{[2-(4-fluorophenyl)-1H-indol-3-yl]methylene}-1-benzothiophen-3(2H)-one] cannot be ordered by IC50: greater than 10 µM for the first, greater than 10 µM for the second.

For `O=C1/C(=C/c2cn(Cc3ccccc3)c3ccccc23)Sc2ccc(Cl)cc21` [Example 287, (2Z)-2-[(1-benzyl-1H-indol-3-yl)methylene]-5-chloro-1-benzothiophen-3(2H)-one], the IC50 was greater than 10 µM.
